From patent US9073920B2, “Substituted dibenzonaphthyridines, pharmaceutical uses thereof and processes therfor” (Purdue Research Foundation, priority 2010, dated 2015)
Several values for one entry are separate records, joined by “and”; a condition that tells them apart may be missing. Equal values may be shown once.

Assays:
[1] = target: T1, Human recombinant Top1 (Homo sapiens, UniProt P11387); assay: Topoisomerase I-mediated DNA cleavage reactions; format: biochemical; design: key to activity of the compounds to produce Top1-mediated DNA cleavage: +: weak activity; ++ and +++: moderate activity; ++ and +++: moderate activity; ++++: similar activity as 1 μM camptothecin; settings: for Top1 inhibitory activity in Top1-mediated DNA cleavage assay: semi-quantitative scale from 0 to ++++, relative to CPT at 1 μM; for activity of the compounds to produce Top1-mediated DNA cleavage: semiquantitative, tested at 0.1 μM, 1 μM, 10 μM, 100 μM, relative to 1 μM camptothecin
T1 construct: made in house
T1 sequence (P11387 1-765): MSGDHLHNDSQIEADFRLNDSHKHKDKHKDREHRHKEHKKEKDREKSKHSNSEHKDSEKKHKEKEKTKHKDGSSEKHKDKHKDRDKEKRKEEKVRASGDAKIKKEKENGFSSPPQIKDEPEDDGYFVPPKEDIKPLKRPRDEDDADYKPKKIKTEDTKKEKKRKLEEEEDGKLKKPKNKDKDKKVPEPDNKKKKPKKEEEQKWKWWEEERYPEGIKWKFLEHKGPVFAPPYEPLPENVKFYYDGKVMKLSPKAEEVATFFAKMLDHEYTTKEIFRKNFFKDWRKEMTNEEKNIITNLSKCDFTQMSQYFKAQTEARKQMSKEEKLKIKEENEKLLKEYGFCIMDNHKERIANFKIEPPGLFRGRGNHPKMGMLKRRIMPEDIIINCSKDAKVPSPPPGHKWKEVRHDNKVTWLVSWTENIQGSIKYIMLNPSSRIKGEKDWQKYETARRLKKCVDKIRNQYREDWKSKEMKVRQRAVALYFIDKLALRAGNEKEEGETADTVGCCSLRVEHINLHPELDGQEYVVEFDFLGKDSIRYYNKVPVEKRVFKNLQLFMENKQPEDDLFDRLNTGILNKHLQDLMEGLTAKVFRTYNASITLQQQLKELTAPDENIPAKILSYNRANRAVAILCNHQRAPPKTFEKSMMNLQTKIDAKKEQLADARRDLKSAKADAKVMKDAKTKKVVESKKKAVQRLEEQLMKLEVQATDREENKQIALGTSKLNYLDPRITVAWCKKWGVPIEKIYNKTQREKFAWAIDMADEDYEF
Description: Topoisomerase I-Mediated DNA Cleavage Reactions. Human recombinant Top1 was purified from Baculovirus as described previously.^34 The 161 bp fragment from pBluescript SK(−) phagemid DNA (Stratagene, La Jolla, Calif.) was cleaved with the restriction endonucleases PvuII and HindIII (New England Biolabs, Beverly, Mass.) supplied in NE buffer 2 (50 μL reactions) for 1 h at 37° C., and separated by electrophoresis in a 1% agarose gel made in 1×TBE buffer. The 161 bp fragment was eluted from the gel slice using the QIAEX II kit (QIAGEN Inc., Valencia, Calif.). Approximately 200 ng of the fragment was 3′-end labeled at the HindIII site by fill-in reaction with [alpha-^32P]-dGTP and 0.5 mM dATP, dCTP, and dTTP, in React 2 buffer (50 mM Tris-HCl, pH 8.0, […], 50 mM NaCl) with 0.5 unit of DNA polymerase I (Klenow fragment). Unincorporated ^32P-dGTP was removed using mini Quick Spin DNA columns (Roche, Indianapolis, Ind.), and the eluate containing the 3′-end-labeled 161 bp fragment was collected. Aliquots (approximately 50,000 dpm/reaction) were incubated with topoisomerase I at 22° C. for 30 min in the presence of the tested drug. Reactions were terminated by adding SDS (0.5% final concentration). The samples (10 μL) were mixed with 30 μL of loading buffer (80% formamide, 10 mM sodium hydroxide, 1 mM sodium EDTA, 0.1% xylene cyanol, and 0.1% bromophenol blue, pH 8.0). Aliquots were separated in denaturing gels (16% polyacrylamine, 7 M urea). Gels were dried and visualized by using a Phosphoimager and ImageQuant software (Molecular Dynamics, Sunnyvale, Calif.). Each gel included a sample of DNA alone, DNA with only the drug, and DNA with Top I without the drug. The compounds described herein were tested at concentrations of 0.1 μM, 1 μM, 10 μM, 100 μM. The activity of the compounds to produce Top1-mediated DNA cleavage is expressed semiquantitatively as follows: +: weak activity; ++ and +++: moderate activity; ++++: similar activity as 1 μM camptothecin. Results: 33, 0; 34, 0; 32, ++; 31, +++; 30, +; 29, +; 28, 0; and 19, 0.
Biological Results.All of the target compounds were tested for induction of DNA damage in Top1-mediated DNA cleavage assays. The results of this assay are designated relative to the Top1 inhibitory activity of CPT and expressed in semi-quantitative fashion on the scale from 0, no detectable activity, to ++++, similar activity to that of compound 1 at a concentration of 1 μM. […] Compounds 29 and 30, containing an N-(3-morpholinylpropyl) or an N-(3-imidazolylpropyl), respectively were Top1 inhibitors, but only at the lower + level. Without being bound by theory, it is believed that the loss of Top1 inhibitory activity with expansion of the five-membered indenone ring of the indenoisoquinoline to the six-membered ring of compounds described herein might result from the decreased overall solubility, especially for 14, 19, and 28, rather than differences in intercalation between DNA base pairs at the Top1 cleavage site. With 29 and 30, incorporation of amines increased water solubility and affinity toward DNA, possibly due to attraction of their positively charged protonated amines with the phosphates of the DNA backbone.

[2] = Solubility in organic solvents; format: physicochemical; settings: relative to their precursors 14 and 29
[3] = system: UO-31; assay: NCI screen antiproliferative activity, renal UO-31; format: cell-based; settings: Homo sapiens, concentration for 50% growth inhibition
Description: (§1) The antipoliferative activity of each compound was tested against 55 different human cancer cell lines in the National Cancer Institute screen.^32, 33 The chlorodibenzonaphthyridinone 32 bearing a morpholinopropyl chain on the lactam nitrogen was cytotoxic to human cancer cells at low micromolar concentrations. The cytotoxicities of 32 in selected cell lines are presented in Table 1, along with the mean graph midpoint value of 5.6 μM. In general, cytotoxicity GI50 values appeared to be in the low micromolar range, although 32 was particularly cytotoxic in the leukemia K-562 and RPMI-8226 cell lines, the ovarian IGROV1 cancer cell line, the renal UO-31 cancer cell line, and the breast MCF7 cancer cell line.

[4] = system: SN12C; assay: NCI screen antiproliferative activity, renal SN12C; format: cell-based; settings: Homo sapiens, concentration for 50% growth inhibition
Description: as §1

[5] = system: SF-539; assay: NCI screen antiproliferative activity, CNS SF-539; format: cell-based; settings: Homo sapiens, concentration for 50% growth inhibition
Description: as §1

[6] = system: MCF7; assay: NCI screen antiproliferative activity, breast MCF7; format: cell-based; settings: Homo sapiens, concentration for 50% growth inhibition
Description: as §1

[7] = system: IGROV1; assay: NCI screen antiproliferative activity, ovarian IGROV1; format: cell-based; settings: Homo sapiens, IGROV-1, concentration for 50% growth inhibition
Description: as §1

[8] = system: HCT-116; assay: NCI screen antiproliferative activity, colon HCT-116; format: cell-based; settings: Homo sapiens, concentration for 50% growth inhibition
Description: as §1

[9] = system: UACC-62; assay: NCI screen antiproliferative activity, melanoma UACC-62; format: cell-based; settings: Homo sapiens, concentration for 50% growth inhibition
Description: as §1

[10] = system: OVCAR-3; assay: NCI screen antiproliferative activity, ovarian OVCAR-3; format: cell-based; settings: Homo sapiens, concentration for 50% growth inhibition
Description: as §1

[11] = system: K-562; assay: NCI screen antiproliferative activity, leukemia K-562; format: cell-based; settings: Homo sapiens, K562, concentration for 50% growth inhibition
Description: as §1

[12] = system: RPMI-8226; assay: NCI screen antiproliferative activity, leukemia RPMI-8226; format: cell-based; settings: Homo sapiens, concentration for 50% growth inhibition
Description: as §1

[13] = system: HOP-62; assay: NCI screen antiproliferative activity, lung HOP-62; format: cell-based; settings: Homo sapiens, concentration for 50% growth inhibition
Description: as §1

[14] = system: DU-145; assay: NCI screen antiproliferative activity, prostate DU-145; format: cell-based; settings: Homo sapiens, concentration for 50% growth inhibition
Description: as §1

[15] = system: all human cancer cell lines successfully tested; assay: NCI screen mean graph midpoint for growth inhibition; format: cell-based; settings: mean over all human cancer cell lines successfully tested
Description: as §1

[16] = system: COLO 205; assay: NCI screen antiproliferative activity, colon COLO 205; format: cell-based; settings: Homo sapiens, concentration for 50% growth inhibition
Description: as §1

[17] = Top1-mediated DNA fragmentation pattern, compared with indenoisoquinolines

With `COc1cc2c(=O)n(C)c3c4ccccc4[nH]c(=O)c3c2cc1OC` [Compound 14, 8,9-Dimethoxy-5-methyldibenzo[c,h][1,6]naphthyridine-6,11(5H,12H)-dione] the “Top1 inhibitory activity in Top1-mediated DNA cleavage assay” value (“Top1 inhibitory activity” for short) [1] was “no detectable inhibition and 0”.

In the case of `C=CCn1c(=O)c2cc(OC)c(OC)cc2c2c(=O)[nH]c3ccccc3c21` [Compound 19, 5-Allyl-8,9-dimethoxydibenzo[c,h][1,6]naphthyridine-6,11(5H,12H)-dione], the “Top1 inhibitory activity” value [1] is reported as “no detectable inhibition” and the “activity of the compounds to produce Top1-mediated DNA cleavage” value (shortened to “activity of the compounds”) [1] is reported as 0.

In the case of `COc1cc2c(=O)n(CCCO)c3c4ccccc4[nH]c(=O)c3c2cc1OC` [Compound 28, 5-(3-Hydroxypropyl)-8,9-dimethoxydibenzo[c,h][1,6]naphthyridine-6,11(5H,12H)-dione], the “Top1 inhibitory activity” value [1] is reported as “no detectable inhibition” and the “activity of the compounds” value [1] is reported as 0.

In the case of `COc1cc2c(=O)n(CCCN3CCOCC3)c3c4ccccc4[nH]c(=O)c3c2cc1OC` [Compound 29, 8,9-Dimethoxy-5-(3-morpholinopropyl)dibenzo[c,h][1,6]naphthyridine-6,11(5H,12H)-dione], the “activity of the compounds” value [1] is reported as “+”.

In the case of `COc1cc2c(=O)n(CCCn3ccnc3)c3c4ccccc4[nH]c(=O)c3c2cc1OC` [Compound 30, 5-(3-(1H-Imidazol-1-yl)propyl)-8,9-dimethoxydibenzo[c,h][1,6]-naphthyridine-6,11(5H,12H)dione], the “activity of the compounds” value [1] is reported as “+”.

For `COc1cc2c(=O)n(C)c3c4ccccc4nc(Cl)c3c2cc1OC` [Compound 31, 11-Chloro-8,9-dimethoxy-5-methyldibenzo[c,h][1,6]naphthyridin-6(5H)-one], the “cleavage band intensity at base pair 97” value [1, 17] was “more intense”, the “cleavage band intensity at base pairs 44 and 68” value [1, 17] was “weak” and the “activity of the compounds” value [1] was “+++”. The “solubilities in solvents like DMSO, methanol and chloroform” value [2] was “increased substantially”.

For `COc1cc2c(=O)n(CCCN3CCOCC3)c3c4ccccc4nc(Cl)c3c2cc1OC` [Compound 32, 11-Chloro-8,9-dimethoxy-5-(3-morpholinopropyl)dibenzo[c,h][1,6]-naphthyridin-6(5H)-one], the GI50 [3] was 0.02 µM, the GI50 [4] was 13.2 µM and the GI50 [5] was 12.3 µM. For the same compound, the GI50 [6] was 0.4 µM, the GI50 [7] was 0.03 µM and the GI50 [8] was 4.16 µM. The “DNA cleavage sites with significant band intensity” value ([1]; Top1-mediated DNA fragmentation pattern) was “only bands for cleavages at the 97 and 119 sites are intense enough to be significant”, the “activity of the compounds” value [1] was “++” and the GI50 [9] was 6.8 µM. It also gave a GI50 [10] of 6.3 µM, a GI50 [11] of 0.2 µM and a GI50 [12] of 0.1 µM. The GI50 [13] was 4.7 µM, the melting point was 185 to 190 °C (dec.) and the GI50 [14] was 10.5 µM. The MGM (mean GI50 across cell lines) [15] was 5.6 µM, the “solubilities in solvents like DMSO, methanol and chloroform” value [2] was “increased substantially” and the GI50 [16] was 0.33 µM.

For `COc1cc2c(Cl)nc3c4ccccc4nc(Cl)c3c2cc1OC` [Compound 33, 6,11-Dichloro-8,9-dimethoxydibenzo[c,h][1,6]naphthyridine], the “Top1 inhibitory activity” value [1] was “loss of activity” and the “activity of the compounds” value [1] was 0.

For `COc1cc2c(OC)nc3c4ccccc4nc(OC)c3c2cc1OC` [Compound 34, 6,8,9,11-Tetramethoxydibenzo[c,h][1,6]naphthyridine], the “Top1 inhibitory activity” value [1] was “loss of activity” and the “activity of the compounds” value [1] was 0.
